According to PubChem BioAssay (NCI):
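Assay format: 96-well plates, 48-hour exposure. GI50 is the concentration that inhibits growth by half. TGI: total growth inhibition.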

Assays:
Assay in all cases: inhibition of tumour cell growth, NCI panel, 48 h
[1] = test system: LOX IMVI melanoma
[2] = test system: NCI-H522 lung
[3] = test system: NCI-H23 lung
[4] = test system: A549 NSCLC
[5] = test system: CCRF-CEM leukemia
[6] = test system: ACHN renal
[7] = test system: NCI/ADR-RES ovarian
[8] = test system: HCT-116 colon
[9] = test system: T-47D breast
[10] = test system: UACC-62 melanoma
[11] = test system: HCC-2998 colon
[12] = test system: HL-60(TB) leukemia
[13] = test system: HOP-62 NSCLC
[14] = test system: 786-0 renal
[15] = test system: KM12 colon
[16] = test system: SW-620 colon
[17] = test system: CAKI-1 renal
[18] = test system: HCT-15 colon
[19] = test system: IGROV1 ovarian
[20] = test system: OVCAR-5 ovarian
[21] = test system: SK-MEL-28 melanoma
[22] = test system: SNB-19 CNS
[23] = test system: OVCAR-8 ovarian
[24] = test system: EKVX NSCLC
[25] = test system: SF-268 CNS
[26] = test system: DU-145 prostate
[27] = test system: UACC-257 melanoma
[28] = test system: PC-3 prostate
[29] = test system: MDA-MB-435
[30] = test system: SK-MEL-2 melanoma
[31] = test system: SR leukemia
[32] = test system: U251 CNS
[33] = test system: HT29 colon
[34] = test system: SF-539 CNS
[35] = test system: RXF 393 renal
[36] = test system: MALME-3M melanoma
[37] = test system: NCI-H226 lung
[38] = test system: HOP-92 NSCLC
[39] = test system: MDA-MB-231 breast
[40] = test system: M14 melanoma
[41] = test system: RPMI-8226 leukemia
[42] = test system: A498 renal
[43] = test system: COLO 205 colon
[44] = test system: HS 578T breast
[45] = test system: NCI-H460 lung
[46] = test system: K-562 leukemia
[47] = test system: MCF7 breast
[48] = test system: UO-31 renal
[49] = test system: TK-10 renal
[50] = test system: BT-549 breast
[51] = test system: OVCAR-3 ovarian
[52] = test system: SK-OV-3 ovarian
[53] = test system: SNB-75 CNS
[54] = test system: SK-MEL-5 melanoma
[55] = test system: MOLT-4 leukemia
[56] = test system: SN12C renal
[57] = test system: OVCAR-4 ovarian
[58] = test system: SF-295 CNS

CNC(=O)Oc1cc(C(C)C)ccc1Sc1ccc(C(C)C)cc1OC(=O)NC
GI50 [1]: 6.09 µM | TGI [1]: 27.6 µM | GI50 [2]: 4.98 µM | TGI [2]: 19.1 µM | GI50 [3]: 6.5 µM | TGI [3]: 23.6 µM | GI50 [4]: 5.22 µM | TGI [4]: 18.4 µM | GI50 [5]: 3.41 µM | TGI [5]: 46.3 µM | GI50 [6]: 6.92 µM | TGI [6]: 24.4 µM | GI50 [7]: 3.9 µM | TGI [7]: 18.6 µM | GI50 [8]: 2.68 µM | TGI [8]: 15.2 µM | GI50 [9]: 10.2 µM | TGI [9]: 25.9 µM | GI50 [10]: 4.24 µM | TGI [10]: 16.5 µM | GI50 [11]: 12.2 µM | TGI [11]: 27.7 µM | GI50 [12]: 3.06 µM | TGI [12]: 12.7 µM | GI50 [13]: 9.56 µM | TGI [13]: 22.6 µM | GI50 [14]: 11.5 µM | TGI [14]: 28.7 µM | GI50 [15]: 5.78 µM | TGI [15]: 18.9 µM | GI50 [16]: 5.01 µM | TGI [16]: 20.1 µM | GI50 [17]: 3.34 µM | TGI [17]: 17.1 µM | GI50 [18]: 1.95 µM | TGI [18]: 16.1 µM | GI50 [19]: 4.98 µM | TGI [19]: 23.8 µM | GI50 [20]: 11.4 µM | TGI [20]: 25.7 µM | GI50 [21]: 4.99 µM | TGI [21]: 17.9 µM | GI50 [22]: 9.57 µM | TGI [22]: 24.4 µM | GI50 [23]: 5.42 µM | TGI [23]: 27.9 µM | GI50 [24]: 1.59 µM | TGI [24]: 7.14 µM | GI50 [25]: 5.36 µM | TGI [25]: 19.4 µM | GI50 [26]: 4.32 µM | TGI [26]: 14.3 µM | GI50 [27]: 5.81 µM | TGI [27]: 20.3 µM | GI50 [28]: 2.97 µM | TGI [28]: 16.9 µM | GI50 [29]: 2.29 µM | TGI [29]: 10 µM | GI50 [30]: 4.21 µM | TGI [30]: 17.3 µM | GI50 [31]: 2.2 µM | TGI [31]: 10 µM | GI50 [32]: 3.5 µM | TGI [32]: 15.6 µM | GI50 [33]: 12.6 µM | TGI [33]: 27.4 µM | GI50 [34]: 4.07 µM | TGI [34]: 17.1 µM | GI50 [35]: 2.52 µM | TGI [35]: 9.34 µM | GI50 [36]: 4.75 µM | TGI [36]: 20.5 µM | GI50 [37]: 10 µM | TGI [37]: 25.5 µM | GI50 [38]: 2.63 µM | TGI [38]: 9.85 µM | GI50 [39]: 5.48 µM | TGI [39]: 19.4 µM | GI50 [40]: 3.61 µM | TGI [40]: 16.3 µM | GI50 [41]: 1.83 µM | TGI [41]: 7.48 µM | GI50 [42]: 12 µM | TGI [42]: 25 µM | GI50 [43]: 14.4 µM | TGI [43]: 28.8 µM | GI50 [44]: 4.7 µM | TGI [44]: 35.6 µM | GI50 [45]: 2.44 µM | TGI [45]: 11 µM | GI50 [46]: 1.27 µM | TGI [46]: 14.5 µM | GI50 [47]: 5.49 µM | TGI [47]: 18.2 µM | GI50 [48]: 3.28 µM | TGI [48]: 16.6 µM | GI50 [49]: 14 µM | TGI [49]: 30.3 µM | GI50 [50]: 3.44 µM | TGI [50]: 12 µM | GI50 [51]: 4.39 µM | TGI [51]: 14.7 µM | GI50 [52]: 10.5 µM | TGI [52]: 23.7 µM | GI50 [53]: 2.88 µM | TGI [53]: 12.2 µM | GI50 [54]: 2.5 µM | TGI [54]: 11.8 µM | GI50 [55]: 2.96 µM | TGI [55]: 20.1 µM | GI50 [56]: 7 µM | TGI [56]: 24 µM

C[C@@H]1CN2[C@H]3[C@@H]1CC[C@]31CCC(=O)O[C@]1(C)[C@H]1CC[C@H]3CCC=C3[C@@H]12
GI50 [1]: > 30 µM | TGI [1]: > 30 µM | GI50 [2]: > 30 µM | TGI [2]: > 30 µM | GI50 [3]: > 30 µM | TGI [3]: > 30 µM | GI50 [4]: > 30 µM | TGI [4]: > 30 µM | GI50 [5]: > 30 µM | TGI [5]: > 30 µM | GI50 [6]: > 30 µM | TGI [6]: > 30 µM | GI50 [7]: > 30 µM | TGI [7]: > 30 µM | GI50 [57]: > 30 µM | TGI [57]: > 30 µM | GI50 [8]: > 30 µM | TGI [8]: > 30 µM | GI50 [9]: > 30 µM | TGI [9]: > 30 µM | GI50 [10]: > 30 µM | TGI [10]: > 30 µM | GI50 [11]: > 30 µM | TGI [11]: > 30 µM | GI50 [12]: > 30 µM | TGI [12]: > 30 µM | GI50 [13]: > 30 µM | TGI [13]: > 30 µM | GI50 [14]: > 30 µM | TGI [14]: > 30 µM | GI50 [15]: > 30 µM | TGI [15]: > 30 µM | GI50 [16]: > 30 µM | TGI [16]: > 30 µM | GI50 [17]: > 30 µM | TGI [17]: > 30 µM | GI50 [18]: > 30 µM | TGI [18]: > 30 µM | GI50 [19]: > 30 µM | TGI [19]: > 30 µM | GI50 [20]: > 30 µM | TGI [20]: > 30 µM | GI50 [21]: > 30 µM | TGI [21]: > 30 µM | GI50 [22]: > 30 µM | TGI [22]: > 30 µM | GI50 [23]: > 30 µM | TGI [23]: > 30 µM | GI50 [24]: > 30 µM | TGI [24]: > 30 µM | GI50 [25]: > 30 µM | TGI [25]: > 30 µM | GI50 [26]: > 30 µM | TGI [26]: > 30 µM | GI50 [28]: > 30 µM | TGI [28]: > 30 µM | GI50 [29]: > 30 µM | TGI [29]: > 30 µM | GI50 [30]: > 30 µM | TGI [30]: > 30 µM | GI50 [31]: > 30 µM | TGI [31]: > 30 µM | GI50 [32]: > 30 µM | TGI [32]: > 30 µM | GI50 [33]: > 30 µM | TGI [33]: > 30 µM | GI50 [34]: > 30 µM | TGI [34]: > 30 µM | GI50 [35]: > 30 µM | TGI [35]: > 30 µM | GI50 [36]: > 30 µM | TGI [36]: > 30 µM | GI50 [37]: > 30 µM | TGI [37]: > 30 µM | GI50 [38]: > 30 µM | TGI [38]: > 30 µM | GI50 [39]: > 30 µM | TGI [39]: > 30 µM | GI50 [58]: > 30 µM | TGI [58]: > 30 µM | GI50 [40]: > 30 µM | TGI [40]: > 30 µM | GI50 [41]: > 30 µM | TGI [41]: > 30 µM | GI50 [42]: > 30 µM | TGI [42]: > 30 µM | GI50 [43]: > 30 µM | TGI [43]: > 30 µM | GI50 [44]: > 30 µM | TGI [44]: > 30 µM | GI50 [45]: > 30 µM | TGI [45]: > 30 µM | GI50 [46]: > 30 µM | TGI [46]: > 30 µM | GI50 [47]: > 30 µM | TGI [47]: > 30 µM | GI50 [48]: > 30 µM | TGI [48]: > 30 µM | GI50 [49]: > 30 µM | TGI [49]: > 30 µM | GI50 [50]: > 30 µM | TGI [50]: > 30 µM | GI50 [51]: > 30 µM | TGI [51]: > 30 µM | GI50 [52]: > 30 µM | TGI [52]: > 30 µM | GI50 [53]: > 30 µM | TGI [53]: > 30 µM | GI50 [54]: > 30 µM | TGI [54]: > 30 µM | GI50 [55]: > 30 µM | TGI [55]: > 30 µM | GI50 [56]: > 30 µM | TGI [56]: > 30 µM
